Molecules are shown by their SMILES.

What is called IC50 is the concentration that gives 50% inhibition. Lower therefore signals greater potency in that assay.

One series has as its system BV-2. Briefly: Inhibition of LPS-induced NO production in mouse BV2 cells after 20 hrs by Griess assay. The format is functional, cell-based. The following applies: BV-2, 20 h. (Griess reagent forms a coloured azo dye with nitrite.)
The molecule `CC(C)[C@]12CC[C@@]34O[C@@]3(CC[C@H]3[C@](C)(C(=O)O)CCC[C@@]34C)[C@H]1O2` showed a half-maximal inhibitory concentration (IC50) above 81 µM.
Same read-out and setting: the same measure for `CC(C)[C@@]12C=C3[C@H](O)C[C@H]4[C@](C)(C(=O)O)CCC[C@]4(C)[C@]3(CC1)OO2`: above 81 µM; for `C=C1CC[C@H](O)/C(C)=C\C[C@@H]2[C@@H]1CC2(C)C`: 13.6 µM.
On the same count and under the same terms, under `C=C(C)c1ccc2c(c1)CC[C@H]1[C@](C)(C(=O)O)CCC[C@]1(C)O2` stands 25.5 µM; under `CC(C)[C@]12CC[C@]3(OO1)C(=CC[C@H]1[C@](C)(C(=O)O)CCC[C@@]13C)[C@@H]2O`, 26.7 µM.
In turn, `C=C(C)c1ccc2c(c1)CC[C@H]1[C@](C)(CO)CCC[C@]21C` gave a half-maximal inhibitory concentration (IC50) of 15.3 µM.
Consider `CO[C@@H]1C[C@H]2[C@](C)(C(=O)O)CCC[C@]2(C)[C@]23CC[C@](C(C)C)(C=C12)OO3`, for which the concentration for half-maximal inhibition (IC50) was found to be 23.7 µM.
Consider `C=C1CC[C@H](O)[C@@]2(C)O[C@H]2C[C@@H]2[C@@H]1CC2(C)C`, for which inhibition was half-maximal at 42.6 µM (IC50).
The same measure, in the same setting: the same measure for `CC1(C)C[C@H](O)[C@]23CC[C@@H](O)[C@](C)(CC[C@@H]12)C3`: 62.2 µM; for `CC(C)[C@]12C=C3CC[C@H]4[C@](C)(C(=O)O)CCC[C@]4(C)[C@@]3(CC1)OO2`: 34.7 µM.
As for `CC(C)[C@@]12C=C3CC[C@H]4[C@](C)(C(=O)O)CCC[C@]4(C)[C@]3(CC1)OO2`, the IC50 came out at 52.4 µM. This IC50 lies about 1.5-fold higher than the previous one.
In the case of `CC(C)c1ccc2c(c1)[C@@H](O)C[C@H]1[C@](C)(C(=O)O)CCC[C@]21C`, the IC50 was 17.9 µM.
Molecule `CC1(C)C[C@@H]2C(=O)CC[C@H]3O[C@]3(C)CC[C@H]21` [KOBUSONE] showed an IC50 above 81 µM.

A further series relates to BV-2. Briefly: Cytotoxicity against mouse BV2 cells NO inhibitory IC50 by MTT assay. The format is cell-based.
Settings: not given
For orientation: Formazan colour is commonly taken as a measure of viable cells.
`CC(C)[C@]12CC[C@@]34O[C@@]3(CC[C@H]3[C@](C)(C(=O)O)CCC[C@@]34C)[C@H]1O2`: the Activity result is given as “Non-Toxic”.
Still for that read-out and setting: the same measure for `CC(C)[C@@]12C=C3[C@H](O)C[C@H]4[C@](C)(C(=O)O)CCC[C@]4(C)[C@]3(CC1)OO2`: “Non-Toxic”; for `C=C1CC[C@H](O)/C(C)=C\C[C@@H]2[C@@H]1CC2(C)C`: “Non-Toxic”; for `C=C(C)c1ccc2c(c1)CC[C@H]1[C@](C)(C(=O)O)CCC[C@]1(C)O2`: “Non-Toxic”.
Consider `CC(C)[C@]12CC[C@]3(OO1)C(=CC[C@H]1[C@](C)(C(=O)O)CCC[C@@]13C)[C@@H]2O`, for which the Activity result is “Non-Toxic”.
`C=C(C)c1ccc2c(c1)CC[C@H]1[C@](C)(CO)CCC[C@]21C`: the Activity entry is “Non-Toxic”.
For the molecule `CO[C@@H]1C[C@H]2[C@](C)(C(=O)O)CCC[C@]2(C)[C@]23CC[C@](C(C)C)(C=C12)OO3`, the Activity entry is on record as “Non-Toxic”.
With `C=C1CC[C@H](O)[C@@]2(C)O[C@H]2C[C@@H]2[C@@H]1CC2(C)C`, the Activity result is reported as “Non-Toxic”.
Still for that read-out and setting: under `CC1(C)C[C@H](O)[C@]23CC[C@@H](O)[C@](C)(CC[C@@H]12)C3` stands “Non-Toxic”.
As to `CC(C)[C@]12C=C3CC[C@H]4[C@](C)(C(=O)O)CCC[C@]4(C)[C@@]3(CC1)OO2`, the Activity entry is recorded as “Non-Toxic”.
As to `CC(C)[C@@]12C=C3CC[C@H]4[C@](C)(C(=O)O)CCC[C@]4(C)[C@]3(CC1)OO2`, the Activity result is “Non-Toxic”.
Turning to `CC(C)c1ccc2c(c1)[C@@H](O)C[C@H]1[C@](C)(C(=O)O)CCC[C@]21C`, the Activity entry was “Non-Toxic”.
Still for that read-out and setting: under `CC1(C)C[C@@H]2C(=O)CC[C@H]3O[C@]3(C)CC[C@H]21` [KOBUSONE] stands “Non-Toxic”.

The values are drawn from ChEMBL document CHEMBL4041528, “Natural NO inhibitors from the leaves of Callicarpa kwangtungensis: Structures, activities, and interactions with iNOS” (Bioorg Med Chem Lett, 2017).
